Laboratory results as given in PubChem BioAssay AID2060509 (Molecular Pharmacology Branch, DTP, NCI, 2025).

System: 485176-168-R4-J1-PDC spheroids with HUVEC/MSC, viability
Assay: Anticancer human tumor 485176-168-R4-J1-PDC patient-derived pancreatic adenocarcinoma cell line growth inhibition [GQUAD]
Conditions: for IC50: curve of first compound; for viability, T/C: stronger effect = lower value
Outline: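 Tumor cells were grown as complex spheroids with HUVEC endothelial cells and mesenchymal stem cells as stroma. G-quadruplex stabilizers were combined with targeted agents over half-log dilutions from near the clinical Cmax, or from 10 microM.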

[1] = second compound 0.0316 µM, first compound 0.0316 µM
[2] = second compound 0.0316 µM, first compound 0.1 µM
[3] = second compound 0.0316 µM, first compound 0.316 µM
[4] = second compound 0.0316 µM, first compound 1 µM
[5] = second compound 0.0316 µM, first compound 3.16 µM
[6] = second compound 0.0316 µM, first compound 10 µM
[7] = second compound 0.1 µM, first compound 0.0316 µM
[8] = second compound 0.1 µM, first compound 0.1 µM
[9] = second compound 0.1 µM, first compound 0.316 µM
[10] = second compound 0.1 µM, first compound 1 µM
[11] = second compound 0.1 µM, first compound 3.16 µM
[12] = second compound 0.1 µM, first compound 10 µM
[13] = second compound 0.316 µM, first compound 0.0316 µM
[14] = second compound 0.316 µM, first compound 0.1 µM
[15] = second compound 0.316 µM, first compound 0.316 µM
[16] = second compound 0.316 µM, first compound 1 µM
[17] = second compound 0.316 µM, first compound 3.16 µM
[18] = second compound 0.316 µM, first compound 10 µM
[19] = second compound 1 µM, first compound 0.0316 µM
[20] = second compound 1 µM, first compound 0.1 µM
[21] = second compound 1 µM, first compound 0.316 µM
[22] = second compound 1 µM, first compound 1 µM
[23] = second compound 1 µM, first compound 3.16 µM
[24] = second compound 1 µM, first compound 10 µM
[25] = second compound 3.16 µM, first compound 0.0316 µM
[26] = second compound 3.16 µM, first compound 0.1 µM
[27] = second compound 3.16 µM, first compound 0.316 µM
[28] = second compound 3.16 µM, first compound 1 µM
[29] = second compound 3.16 µM, first compound 3.16 µM
[30] = second compound 3.16 µM, first compound 10 µM
[31] = second compound 10 µM, first compound 0.0316 µM
[32] = second compound 10 µM, first compound 0.1 µM
[33] = second compound 10 µM, first compound 0.316 µM
[34] = second compound 10 µM, first compound 1 µM
[35] = second compound 10 µM, first compound 3.16 µM
[36] = second compound 10 µM, first compound 10 µM
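Also: spheroids exposed to compounds for seven days before readout.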
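For viability, T/C in this document: percent viability relative to DMSO vehicle control wells as 100%.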

## O=c1[nH]cc(F)c(=O)[nH]1 + Cc1[nH]c2ccc(F)cc2c1-c1nc2c3cccnc3c3ncccc3c2[nH]1
Second compound 0.0316 µM
  IC50: 928 nM
Second compound 0.1 µM
  IC50: 967 nM
Second compound 0.316 µM
  IC50: > 10000 nM
Second compound 1 µM
  IC50: 842 nM
Second compound 3.16 µM
  IC50: 2520 nM
Second compound 10 µM
  IC50: 807 nM
[1]
  viability, T/C: 89.8%
[2]
  viability, T/C: 83.4%
[3]
  viability, T/C: 75.1%
[4]
  viability, T/C: 46.7%
[5]
  viability, T/C: 51.4%
[6]
  viability, T/C: 46.6%
[7]
  viability, T/C: 86.7%
[8]
  viability, T/C: 96.3%
[9]
  viability, T/C: 80.9%
[10]
  viability, T/C: 45.9%
[11]
  viability, T/C: 48.8%
[12]
  viability, T/C: 52.5%
[13]
  viability, T/C: 92.7%
[14]
  viability, T/C: 102%
[15]
  viability, T/C: 76.8%
[16]
  viability, T/C: 55.5%
[17]
  viability, T/C: 46.2%
[18]
  viability, T/C: 54.8%
[19]
  viability, T/C: 81.9%
[20]
  viability, T/C: 104%
[21]
  viability, T/C: 68.5%
[22]
  viability, T/C: 49.8%
[23]
  viability, T/C: 43.2%
[24]
  viability, T/C: 47.2%
[25]
  viability, T/C: 93.7%
[26]
  viability, T/C: 86.5%
[27]
  viability, T/C: 69.5%
[28]
  viability, T/C: 65.1%
[29]
  viability, T/C: 39.7%
[30]
  viability, T/C: 47.2%
[31]
  viability, T/C: 94.1%
[32]
  viability, T/C: 80.5%
[33]
  viability, T/C: 60.5%
[34]
  viability, T/C: 46.8%
[35]
  viability, T/C: 41.6%
[36]
  viability, T/C: 48.5%

## CC(=O)O[C@H]1C(=O)[C@@]2(C)[C@H]([C@H](OC(=O)c3ccccc3)[C@]3(O)C[C@H](OC(=O)[C@H](O)[C@@H](NC(=O)c4ccccc4)c4ccccc4)C(C)=C1C3(C)C)[C@]1(OC(C)=O)CO[C@@H]1C[C@@H]2O + Cc1[nH]c2ccc(F)cc2c1-c1nc2c3cccnc3c3ncccc3c2[nH]1
Second compound 0.0316 µM
  IC50: < 31.6 nM
Second compound 0.1 µM
  IC50: < 31.6 nM
Second compound 0.316 µM
  IC50: < 31.6 nM
Second compound 1 µM
  IC50: < 31.6 nM
Second compound 3.16 µM
  IC50: < 31.6 nM
Second compound 10 µM
  IC50: < 31.6 nM
[1]
  viability, T/C: 29.9%
[2]
  viability, T/C: 10.3%
[3]
  viability, T/C: 10.7%
[4]
  viability, T/C: 10.7%
[5]
  viability, T/C: 10.6%
[6]
  viability, T/C: 11.5%
[7]
  viability, T/C: 29.6%
[8]
  viability, T/C: 13.1%
[9]
  viability, T/C: 16%
[10]
  viability, T/C: 12.4%
[11]
  viability, T/C: 12.3%
[12]
  viability, T/C: 10%
[13]
  viability, T/C: 24.9%
[14]
  viability, T/C: 14.4%
[15]
  viability, T/C: 14.9%
[16]
  viability, T/C: 9.44%
[17]
  viability, T/C: 12.5%
[18]
  viability, T/C: 11.7%
[19]
  viability, T/C: 28.6%
[20]
  viability, T/C: 13.2%
[21]
  viability, T/C: 12%
[22]
  viability, T/C: 13.2%
[23]
  viability, T/C: 9.22%
[24]
  viability, T/C: 10.8%
[25]
  viability, T/C: 24.5%
[26]
  viability, T/C: 12.1%
[27]
  viability, T/C: 13.4%
[28]
  viability, T/C: 12.2%
[29]
  viability, T/C: 11.3%
[30]
  viability, T/C: 11.8%
[31]
  viability, T/C: 28%
[32]
  viability, T/C: 9.49%
[33]
  viability, T/C: 14.4%
[34]
  viability, T/C: 14.4%
[35]
  viability, T/C: 11.1%
[36]
  viability, T/C: 12.1%

## Cc1[nH]c2ccccc2c1CCNCc1ccc(/C=C/C(=O)NO)cc1 + Cc1cnc(CNC(=O)c2c(=O)c3ccc(N4CCCN(C)CC4)nc3n3c2sc2ccccc23)cn1
Second compound 0.0316 µM
  IC50: 94 nM
Second compound 0.1 µM
  IC50: 39.2 nM
Second compound 0.316 µM
  IC50: 11 nM
Second compound 1 µM
  IC50: < 0.999 nM
Second compound 3.16 µM
  IC50: < 0.999 nM
Second compound 10 µM
  IC50: < 0.999 nM
Second compound 0.0316 µM, first compound 0.000999 µM
  viability, T/C: 99.4%
Second compound 0.0316 µM, first compound 0.00316 µM
  viability, T/C: 74.4%
Second compound 0.0316 µM, first compound 0.00999 µM
  viability, T/C: 85.6%
[1]
  viability, T/C: 60.5%
Second compound 0.0316 µM, first compound 0.0999 µM
  viability, T/C: 57.5%
[3]
  viability, T/C: 12.1%
Second compound 0.1 µM, first compound 0.000999 µM
  viability, T/C: 74.5%
Second compound 0.1 µM, first compound 0.00316 µM
  viability, T/C: 89.6%
Second compound 0.1 µM, first compound 0.00999 µM
  viability, T/C: 49.4%
[7]
  viability, T/C: 51.7%
Second compound 0.1 µM, first compound 0.0999 µM
  viability, T/C: 44.3%
[9]
  viability, T/C: 9.46%
Second compound 0.316 µM, first compound 0.000999 µM
  viability, T/C: 63.3%
Second compound 0.316 µM, first compound 0.00316 µM
  viability, T/C: 59.6%
Second compound 0.316 µM, first compound 0.00999 µM
  viability, T/C: 53.5%
[13]
  viability, T/C: 35.3%
Second compound 0.316 µM, first compound 0.0999 µM
  viability, T/C: 27.2%
[15]
  viability, T/C: 6.34%
Second compound 1 µM, first compound 0.000999 µM
  viability, T/C: 44.6%
Second compound 1 µM, first compound 0.00316 µM
  viability, T/C: 52.6%
Second compound 1 µM, first compound 0.00999 µM
  viability, T/C: 45.4%
[19]
  viability, T/C: 30.7%
Second compound 1 µM, first compound 0.0999 µM
  viability, T/C: 23.8%
[21]
  viability, T/C: 0.94%
Second compound 3.16 µM, first compound 0.000999 µM
  viability, T/C: 47.2%
Second compound 3.16 µM, first compound 0.00316 µM
  viability, T/C: 39.2%
Second compound 3.16 µM, first compound 0.00999 µM
  viability, T/C: 45%
[25]
  viability, T/C: 33.1%
Second compound 3.16 µM, first compound 0.0999 µM
  viability, T/C: 14%
[27]
  viability, T/C: 0.27%
Second compound 10 µM, first compound 0.000999 µM
  viability, T/C: 36.2%
Second compound 10 µM, first compound 0.00316 µM
  viability, T/C: 37.5%
Second compound 10 µM, first compound 0.00999 µM
  viability, T/C: 32.5%
[31]
  viability, T/C: 26.5%
Second compound 10 µM, first compound 0.0999 µM
  viability, T/C: 11.1%
[33]
  viability, T/C: 0.69%

## C=CC(=O)N1CCN(c2nc(=O)n(-c3c(C)ccnc3C(C)C)c3nc(-c4c(O)cccc4F)c(F)cc23)C(C)C1 (stereo not drawn) + Cc1cnc(CNC(=O)c2c(=O)c3ccc(N4CCCN(C)CC4)nc3n3c2sc2ccccc23)cn1
Second compound 0.0316 µM
  IC50: > 10000 nM
Second compound 0.1 µM
  IC50: > 10000 nM
Second compound 0.316 µM
  IC50: > 10000 nM
Second compound 1 µM
  IC50: > 10000 nM
Second compound 3.16 µM
  IC50: < 31.6 nM
Second compound 10 µM
  IC50: < 31.6 nM
[1]
  viability, T/C: 108%
[2]
  viability, T/C: 97.2%
[3]
  viability, T/C: 111%
[4]
  viability, T/C: 97.7%
[5]
  viability, T/C: 114%
[6]
  viability, T/C: 110%
[7]
  viability, T/C: 67.5%
[8]
  viability, T/C: 81.6%
[9]
  viability, T/C: 86.7%
[10]
  viability, T/C: 92.4%
[11]
  viability, T/C: 96.4%
[12]
  viability, T/C: 92.5%
[13]
  viability, T/C: 63.8%
[14]
  viability, T/C: 62.5%
[15]
  viability, T/C: 83.7%
[16]
  viability, T/C: 72.1%
[17]
  viability, T/C: 81.6%
[18]
  viability, T/C: 79.3%
[19]
  viability, T/C: 58%
[20]
  viability, T/C: 62.1%
[21]
  viability, T/C: 80.1%
[22]
  viability, T/C: 52.2%
[23]
  viability, T/C: 61.1%
[24]
  viability, T/C: 60.7%
[25]
  viability, T/C: 49%
[26]
  viability, T/C: 45.7%
[27]
  viability, T/C: 46.9%
[28]
  viability, T/C: 50.1%
[29]
  viability, T/C: 54.6%
[30]
  viability, T/C: 49.5%
[31]
  viability, T/C: 43.6%
[32]
  viability, T/C: 47.7%
[33]
  viability, T/C: 51%
[34]
  viability, T/C: 43.7%
[35]
  viability, T/C: 49%
[36]
  viability, T/C: 50.3%
